From ChEMBL document CHEMBL4342519, “Triazolo-Peptidomimetics: Novel Radiolabeled Minigastrin Analogs for Improved Tumor Targeting” (J Med Chem, 2020)
Activity calls are given as the source filed them. The calls are words filed in the database; no cut-off is given here. *1 amine or outer side, *2 acyl side, *3 side chain or, on linkers, in order; H or OH if unused. Where a SMILES comes first, the peptide text is derived from it. [ ]: non-standard residue; d: D form. The star is where a group is joined. X2 = CCCC[C@@H](C(=O)[*:2])n1cc([C@H](Cc2c[nH]c3ccccc23)N[*:1])nn1; X4 = C[C@H](N[*:1])c1cn([C@@H](Cc2ccc(O)cc2)C(=O)[*:2])nn1; DOTA = O=C(O)CN1CCN(CC(=O)O)CCN(CC(=O)*)CCN(CC(=O)O)CC1; X3 = O=C([C@H](Cc1c[nH]c2ccccc12)n1cc(CN[*:1])nn1)[*:2]; X5 = C[C@@H](C(=O)[*:2])n1cc([C@@H](CCC(=O)O)N[*:1])nn1; X1 = O=C(Cn1cc([C@H](Cc2ccc(O)cc2)N[*:1])nn1)[*:2]; Nle = CCCC[C@H](N)C(=O)O

Key:
[1] = Stability of compound in human plasma at 7.5 MBq assessed as intact compound measured after 24 hrs using 177Lu labeled compound by gamma-HPLC analysis; assay type: ADME, cell-free; conditions: for remaining at 24 h, 7.5 MBq: read-out: Stability; for Stability: 24 h
[2] = biological target: T1, Gastrin/cholecystokinin type B receptor (Homo sapiens) (UniProt P32239); assay: Binding affinity to CCK2R (unknown origin) expressed in human A431 cells assessed as receptor-mediated drug internalization at 5 kBq incubated 4 hrs using 177Lu labeled compound by gamma counting method relative to control; assay type: cell-based
T1 sequence (whole entry): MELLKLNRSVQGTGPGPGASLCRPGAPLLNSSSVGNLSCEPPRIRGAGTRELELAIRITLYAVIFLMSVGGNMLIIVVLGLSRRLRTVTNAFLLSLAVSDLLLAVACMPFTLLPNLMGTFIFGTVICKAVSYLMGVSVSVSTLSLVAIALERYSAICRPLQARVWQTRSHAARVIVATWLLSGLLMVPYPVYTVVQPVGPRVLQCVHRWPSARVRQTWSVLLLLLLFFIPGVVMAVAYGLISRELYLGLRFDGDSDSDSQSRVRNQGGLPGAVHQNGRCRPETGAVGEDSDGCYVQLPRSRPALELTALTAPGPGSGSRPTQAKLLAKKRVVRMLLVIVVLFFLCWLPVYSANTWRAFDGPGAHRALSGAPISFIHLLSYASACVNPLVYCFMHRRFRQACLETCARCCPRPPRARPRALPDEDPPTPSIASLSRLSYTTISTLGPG

[3] = Drug uptake in tumor of CD1 nu/nu mouse xenografted with human A431 cells transfected with CCK2R at 0.5 MBq after 4 hrs using 177Lu labeled compound by Cobra-2 gamma counter method relative to control; assay type: ADME, tissue-based, Neoplasm
[4] = Ratio of half life of compound to [Nle15]MG11 in human plasma at 7.5 MBq measured up to 24 hrs at 37 degree C using 177Lu labeled compound by gamma-HPLC analysis; assay type: ADME, cell-free
[5] = Half life in human plasma at 7.5 MBq measured up to 24 hrs at 37 degree C using 177Lu labeled compound by gamma-HPLC analysis; assay type: ADME, cell-free
[6] = biological target: T1, Gastrin/cholecystokinin type B receptor (Homo sapiens); assay: Binding affinity to CCK2R (unknown origin) expressed in human A431 cells assessed as receptor-mediated drug internalization at 5 kBq incubated up to 240 mins using 177Lu labeled compound by gamma counting method relative to control; assay type: cell-based
[7] = biological target: T2, Gastrin/cholecystokinin type B receptor (Homo sapiens, UniProt P32239); assay: Displacement of [177Lu] PP-F11N from CCK2R (unknown origin) transfected in A431 cells incubated for 1 hr at 4 degree C followed by compound washout with PBS buffer using Lu3+ labeled compound by Cobra-2 gamma counter method; assay type: cell-based
T2 sequence (P32239 whole entry): T1 sequence (whole entry)

[8] = Lipophilicity, log D of compound in PBS buffer at 0.25 MBq and pH 7.4 using 177Lu labeled compound by shake-flask method; assay type: physicochemical
[9] = Drug uptake in tumor of CD1 nu/nu mouse xenografted with human A431 cells transfected with CCK2R at 0.5 MBq after 1 hr using 177Lu labeled compound by Cobra-2 gamma counter method; assay type: ADME, tissue-based, Neoplasm
[10] = biological target: T1, Gastrin/cholecystokinin type B receptor (Homo sapiens); assay: Potency index, ratio of [Nle15]MG11 IC50 to test compound IC50 for displacement of [177Lu] PP-F11N from CCK2R (unknown origin) transfected in A431 cells incubated for 1 hr at 4 degree C followed by compound washout with PBS buffer using Lu3+ labeled compound by Cobra-2 gamma counter method; assay type: cell-based
[11] = Drug uptake in tumor of CD1 nu/nu mouse xenografted with human A431 cells transfected with CCK2R at 0.5 MBq, iv after 4 hrs using 177Lu labeled compound by Cobra-2 gamma counter method relative to [Nle15]MG11; assay type: ADME, organism-based, Neoplasm; conditions: in vivo
[12] = Ratio of drug uptake in tumor to kidney in CD1 nu/nu mouse xenografted with human A431 cells transfected with CCK2R at 0.5 MBq after 4 hrs using 177Lu labeled compound by Cobra-2 gamma counter method; assay type: ADME, tissue-based
[13] = Drug recovery in tumor of CD1 nu/nu mouse xenografted with human A431 cells transfected with CCK2R at 0.5 MBq after 24 hrs using 177Lu labeled compound by Cobra-2 gamma counter method relative to control; assay type: ADME, tissue-based, Neoplasm
[14] = Drug uptake in tumor of CD1 nu/nu mouse xenografted with human A431 cells transfected with CCK2R at 0.5 MBq after 24 hrs using 177Lu labeled compound by Cobra-2 gamma counter method relative to control; assay type: ADME, tissue-based, Neoplasm
[15] = biological target: T1, Gastrin/cholecystokinin type B receptor (Homo sapiens); assay: Binding affinity to CCK2R (unknown origin) expressed in human A431 cells assessed as receptor-mediated drug internalization at 5 kBq incubated 2 to 4 hrs using 177Lu labeled compound by gamma counting method relative to control; assay type: cell-based

| SMILES | remaining at 24 h, 7.5 MBq [1] [%] | Drug uptake [2] | Drug uptake [3] | Ratio [4] | half-life at 7.5 MBq [5] [h] | Drug uptake [6] [%] | IC50 [7] [nM] | logD ([8]; PBS buffer, read-out: logD) | Stability [1] | Drug uptake [9] | Ratio IC50 [10] | Ratio [11] | Ratio [12] | Drug recovery [13] [%] | Drug uptake [14] | logD ([8]; buffer) | fold change (FC) [15] |
| --- | --- | --- | --- | --- | --- | --- | --- | --- | --- | --- | --- | --- | --- | --- | --- | --- | --- |
| CCCC[C@@H](C(=O)N[C@@H](CC(=O)O)C(=O)N[C@@H](Cc1ccccc1)C(N)=O)n1cc([C@H](Cc2c[nH]c3ccccc23)NC(=O)CNC(=O)[C@H](Cc2ccc(O)cc2)NC(=O)[C@H](C)NC(=O)[C@@H](CCC(=O)O)NC(=O)CN2CCN(CC(=O)O)CCN(CC(=O)O)CCN(CC(=O)O)CC2)nn1 ({DOTA}-[dE]AYG[X2]DF-NH2) | > 50 | Active | Active | 90 | 350 | 33.1 | 25.4 | -3.98 |  |  |  |  |  |  |  |  |  |
| CCCC[C@H](NC(=O)[C@H](Cc1c[nH]c2ccccc12)NC(=O)CCNC(=O)[C@H](Cc1ccc(O)cc1)NC(=O)[C@H](C)NC(=O)[C@@H](CCC(=O)O)NC(=O)CN1CCN(CC(=O)O)CCN(CC(=O)O)CCN(CC(=O)O)CC1)C(=O)N[C@@H](CC(=O)O)C(=O)N[C@@H](Cc1ccccc1)C(N)=O |  |  |  |  | 8.5 | 44.5 | 18.8 | -3.73 |  |  |  |  |  |  |  |  |  |
| CCCC[C@H](NC(=O)[C@H](Cc1c[nH]c2ccccc12)NC(=O)CNC(=O)[C@H](Cc1ccc(O)cc1)NC(=O)[C@H](C)NC(=O)[C@@H](CCC(=O)O)NC(=O)CN1CCN(CC(=O)O)CCN(CC(=O)O)CCN(CC(=O)O)CC1)c1cn([C@@H](CC(=O)O)C(=O)N[C@@H](Cc2ccccc2)C(N)=O)nn1 | > 50 |  | Active |  | 114 | 0.2 | > 50000 | -3.75 |  |  |  |  |  |  |  |  |  |
| CCCC[C@H](NC(=O)[C@H](Cc1c[nH]c2ccccc12)NC(=O)CNC(=O)[C@H](Cc1ccc(O)cc1)n1cc([C@H](C)NC(=O)[C@@H](CCC(=O)O)NC(=O)CN2CCN(CC(=O)O)CCN(CC(=O)O)CCN(CC(=O)O)CC2)nn1)C(=O)N[C@@H](CC(=O)O)C(=O)N[C@@H](Cc1ccccc1)C(N)=O ({DOTA}-[dE][X4]GW[Nle]DF-NH2) | > 50 | Active | Active |  | 51.4 | 29.6 | 20.9 | -3.9 |  |  |  |  |  |  |  |  |  |
| CCCC[C@H](NC(=O)[C@H](Cc1c[nH]c2ccccc12)n1cc(CNC(=O)[C@H](Cc2ccc(O)cc2)NC(=O)[C@H](C)NC(=O)[C@@H](CCC(=O)O)NC(=O)CN2CCN(CC(=O)O)CCN(CC(=O)O)CCN(CC(=O)O)CC2)nn1)C(=O)N[C@@H](CC(=O)O)C(=O)N[C@@H](Cc1ccccc1)C(N)=O ({DOTA}-[dE]AY[X3][Nle]DF-NH2) |  | Active | Active |  | 3.8 | 41.7 | 15.6 | -4 | Unstable |  |  |  |  |  |  |  |  |
| CCCC[C@H](NC(=O)[C@H](Cc1c[nH]c2ccccc12)NC(=O)CNC(=O)[C@H](Cc1ccc(O)cc1)NC(=O)[C@H](C)NC(=O)[C@@H](CCC(=O)O)NC(=O)CN1CCN(CC(=O)O)CCN(CC(=O)O)CCN(CC(=O)O)CC1)C(=O)N[C@@H](CC(=O)O)C(=O)N[C@@H](Cc1ccccc1)c1c[nH]nn1 | > 50 |  |  |  | 34.9 | 2.5 | 200 | -3.69 |  |  |  |  |  |  |  |  |  |
| CCCC[C@H](NC(=O)[C@H](Cc1c[nH]c2ccccc12)NC(=O)Cn1cc([C@H](Cc2ccc(O)cc2)NC(=O)[C@H](C)NC(=O)[C@@H](CCC(=O)O)NC(=O)CN2CCN(CC(=O)O)CCN(CC(=O)O)CCN(CC(=O)O)CC2)nn1)C(=O)N[C@@H](CC(=O)O)C(=O)N[C@@H](Cc1ccccc1)C(N)=O ({DOTA}-[dE]A[X1]W[Nle]DF-NH2) |  | 31% | 3.91 % ID/g |  | 2.6 | 54.3 | 1.7 |  | Unstable | Active | 10 | 2.6 | 5.81 | 75 | Active | -4.06 | 2 |
| CCCC[C@H](NC(=O)[C@H](Cc1c[nH]c2ccccc12)NC(=O)CNC(=O)[C@H](Cc1ccc(O)cc1)NC(=O)[C@H](C)NC(=O)[C@@H](CCC(=O)O)NC(=O)CN1CCN(CC(=O)O)CCN(CC(=O)O)CCN(CC(=O)O)CC1)C(=O)N[C@@H](CC(=O)O)c1cn([C@@H](Cc2ccccc2)C(N)=O)nn1 | > 50 |  |  |  | 35.9 | 0.1 | > 50000 | -3.95 |  |  |  |  |  |  |  |  |  |
| CCCC[C@H](NC(=O)[C@H](Cc1c[nH]c2ccccc12)NC(=O)CNC(=O)[C@H](Cc1ccc(O)cc1)NC(=O)[C@H](C)n1cc([C@@H](CCC(=O)O)NC(=O)CN2CCN(CC(=O)O)CCN(CC(=O)O)CCN(CC(=O)O)CC2)nn1)C(=O)N[C@@H](CC(=O)O)C(=O)N[C@@H](Cc1ccccc1)C(N)=O ({DOTA}-[X5]YGW[Nle]DF-NH2) |  | Active | Active |  | 7.7 | 39.6 | 8 | -3.98 |  |  | 2 |  |  |  |  |  |  |
| CCCC[C@H](NC(=O)[C@H](Cc1c[nH]c2ccccc12)NC(=O)CNC(=O)[C@H](Cc1ccc(O)cc1)NC(=O)[C@H](C)NC(=O)[C@@H](CCC(=O)O)NC(=O)CN1CCN(CC(=O)O)CCN(CC(=O)O)CCN(CC(=O)O)CC1)C(=O)N[C@@H](CC(=O)O)C(=O)N[C@@H](Cc1ccccc1)C(N)=O ({DOTA}-[dE]AYGW[Nle]DF-NH2) |  | 11.7% | 1.48 % ID/g |  | 3.9 | 32.2 | 15.4 | -3.86 |  | Active |  |  | 1.83 | 34 | < 0.9 % ID/g |  |  |
| CCCC[C@H](NC(=O)[C@H](Cc1c[nH]c2ccccc12)NC(=O)CNC(=O)C[C@H](Cc1ccc(O)cc1)NC(=O)[C@H](C)NC(=O)[C@@H](CCC(=O)O)NC(=O)CN1CCN(CC(=O)O)CCN(CC(=O)O)CCN(CC(=O)O)CC1)C(=O)N[C@@H](CC(=O)O)C(=O)N[C@@H](Cc1ccccc1)C(N)=O |  |  |  |  | 4.7 | 37.4 | 25.8 | -3.83 |  |  |  |  |  |  |  |  |  |
